Laboratory results published in PubChem BioAssay (NCI).
“And” between values parts separate entries of the source, which are not always exact repeats. Identical values can stand only once.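 Five concentrations, 48 hours, 96-well plates. GI50 marks 50% less growth. Definition used: TGI = concentration required for complete inhibition of growth.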

Experiments:
Experiment in all cases: NCI anticancer screen, dose series, 48 h
OVCAR-3 ovarian = test system: OVCAR-3 ovarian
IGROV1 ovarian = test system: IGROV1 ovarian
786-0 renal = test system: 786-0 renal
NCI-H23 lung = test system: NCI-H23 lung
SK-MEL-28 melanoma = test system: SK-MEL-28 melanoma
A498 renal = test system: A498 renal
MDA-MB-231 breast = test system: MDA-MB-231 breast
A549 NSCLC = test system: A549 NSCLC
SF-268 CNS = test system: SF-268 CNS
SF-539 CNS = test system: SF-539 CNS

| SMILES | GI50 (OVCAR-3 ovarian) [µM] | TGI (OVCAR-3 ovarian) [µM] | GI50 (IGROV1 ovarian) [µM] | TGI (IGROV1 ovarian) [µM] | GI50 (786-0 renal) [µM] | TGI (786-0 renal) | GI50 (NCI-H23 lung) [µM] | TGI (NCI-H23 lung) | GI50 (SK-MEL-28 melanoma) [µM] | TGI (SK-MEL-28 melanoma) [µM] | GI50 (A498 renal) [µM] | TGI (A498 renal) | GI50 (MDA-MB-231 breast) [µM] | TGI (MDA-MB-231 breast) | GI50 (A549 NSCLC) [µM] | TGI (A549 NSCLC) [µM] | GI50 (SF-268 CNS) [µM] | TGI (SF-268 CNS) [µM] | GI50 (SF-539 CNS) [µM] | TGI (SF-539 CNS) |
| --- | --- | --- | --- | --- | --- | --- | --- | --- | --- | --- | --- | --- | --- | --- | --- | --- | --- | --- | --- | --- |
| Cn1c(=O)c2[nH]c(COc3ccc(C(C)(C)C)cc3)nc2n(C)c1=O | 12.3 | 33.6 | 14.1 | 44.5 | 19.5 | > 100 µM | 5.29 | > 100 µM | 28.8 | > 100 | 4.94 | 60.1 µM | 41.4 | > 100 µM | 18.9 | > 100 | 14.1 | > 100 | 36.7 | > 100 µM |
| O=C(/C=C\c1ccnc2ccccc12)c1ccc([N+](=O)[O-])cc1 | 7.23 | 43.2 | 16 | > 79.6 | 16.9 | > 89 µM | 5.54 | 59.5 µM | 20.5 | > 83.2 | 1.68 | > 100 µM | 8.63 | 38.7 µM | > 41.1 | > 100 | 21.6 | > 82.8 | 6.82 | 24.9 µM |
| COc1ccc(/C=C2\N=C3SC=C(N)N3C2=O)cc1 | 1.14 | 2.98 | 0.499 | 2.39 | 1.28 | 2.7 µM | 1.67 | 8.47 µM | 1.29 | 4.75 | 0.177 | 1.37 µM | 1.05 | 3.63 µM | 1.64 | 15.6 | 1.82 | 7.29 | 1.5 | 4.07 µM |
| CC(=O)N1CC(F)(F)c2c(Sc3ncc(N4CCC5(CC4)COC[C@H]5N)nc3N)cccc21 | 16.9 | 61.5 | 2.47 | 86.9 | 10.8 | 27.1 µM | 3.35 | > 100 µM | 16.1 | 30.7 | 0.402 | 4.18 µM | 17.3 | 41.5 µM | 23.1 | > 100 | 17.4 | > 100 | 11.2 | 23.3 µM |
| CC/C=C\CCC/C=C1/C(=O)C=C[C@@H]1C/C=C\CCCC(=O)O | 3.36 | 10.9 | 4.12 | 15.9 | 4.37 | 15.1 µM | 3.37 | 13.7 µM | 3.13 | 10.6 | 18.4 | 33.9 µM | 5.55 | 22.5 µM | 12.8 | 32.7 | 5.03 | 22.1 | 3.52 | 12.4 µM |
| CC(=O)/C(C)=N/N/C(N)=N\S(=O)(=O)c1cc(C(=O)Nc2ccccc2)c(Cl)cc1SCc1ccccc1 | > 100 | > 100 | 29.9 | > 100 | 0.766 | > 100 µM | 42.8 | > 100 µM | > 100 | > 100 | 55.9 | > 100 µM | 5.94 | > 100 µM | 30.5 | > 100 | 40.4 | > 100 | 2.79 | 8.05 µM |
| CCNCCNc1cc(-c2ccc(F)cc2)c(C#N)c2nc3ccccc3n12 | 1.97 | 4.36 | 7.26 | 22.8 | 1.77 | 3.45 µM | 13.7 | 29 µM | 1.86 | 3.59 | 4.79 | 17.2 µM | 2.73 | 7.69 µM | 4.78 | 15.4 | 3.09 | 12.8 | 1.7 | 3.24 µM |
| CC1(C)OCN(c2ccc(Cl)cc2)Cn2c1nc1ccccc12 |  | > 100 |  | > 26.7 |  | > 100 µM |  | > 100 µM |  | > 100 |  | > 100 µM |  | > 100 µM |  | > 100 |  | > 100 |  | > 100 µM |
| CN(C)c1ccc(/C=C/c2ccnc3ccccc23)cc1 | 2.71 |  | 5.61 | > 100 | 3.77 | > 100 µM and 21.6 µM | 3.83 | > 100 µM and 23 µM | 9.01 | > 100 | 4.03 | > 100 µM and 24.8 µM | 5.36 | > 100 µM and 30 µM | 4.14 | > 100 | 5.58 | > 100 | 3.14 | > 100 µM and 17.5 µM |
| NC(CSC(c1ccccc1)(c1ccccc1)c1ccc2ccccc2c1)C(=O)O (centres undefined) | 0.0287 | 0.0992 | 0.124 | 21.6 | 0.0763 | 1.19 µM | 0.131 | 16.4 µM | 0.38 | 16 | 0.0529 | 3.79 µM | 0.0695 | 5 µM | 0.095 | 26.4 | 0.0517 | 13.7 | 0.0384 | 3.07 µM |
| COc1ccccc1-n1c(SCc2cc(OC)c(OC)c(OC)c2)nc2ccc(Cl)cc2c1=O | 2.21 | 15.9 | 10.9 | > 100 | 4.46 | > 100 µM | 5.9 | > 100 µM | 5.76 | > 100 | 1.76 | 48.2 µM | 4.24 | > 100 µM | 2.87 | > 100 | 23.1 | > 100 | 3.41 | 19.6 µM |
| COc1ccc(/C=C(\C#N)c2cc3ccccc3n2C)cc1 | 0.336 | 3.19 | 0.526 | > 100 | 0.613 | > 100 µM | 0.645 | > 100 µM | 4.52 | > 100 | 0.071 | 0.675 µM | 0.699 | > 100 µM | 0.514 | > 100 | 2.52 | > 100 | 0.305 | 1.22 µM |
| Cn1cnc([N+](=O)[O-])c1Sc1ncnc2c1ncn2C1OC(CO)C(O)C1O (centres undefined) | 3.93 | > 100 | 11.4 | > 100 | 5.35 | > 100 µM | 4.8 | > 100 µM | 72.2 | > 100 | 2.36 | > 100 µM | 9.62 | > 100 µM | 29.3 | > 100 | 18.4 | > 100 | 4.11 | > 100 µM |
| Oc1ccccc1-n1c(-c2ccccc2)ccc1-c1ccccc1 | 9.54 | 21.7 | 4.1 | 19.4 | 13.2 | 26.5 µM | 4.79 | 33.3 µM | 10.8 | 31.6 | 7.49 | 35.8 µM | 4.21 | 22.1 µM | 4.62 | 19.6 | 10.5 | 24.8 | 15.2 | 31.9 µM |
